Reference: article PMC6272295, “In Vitro Neuroprotective Activities of Compounds from Angelica shikokiana Makino” (Molecules, 2015)
Where two headings read alike, the source gives them in different places.

Experiments:
[1] = Scavenging of hydroxyl radical, 2-deoxyribose degradation assay; details: for % Inhibition of deoxyribose degradation, Site-Specific / % Inhibition of deoxyribose degradation, Non Site-Specific: 300 µM; for % Inhibition of deoxyribose degradation, Non Site-Specific: 25 min, pH 7.4
Experimental: The inhibitory effect of bioactive compounds on deoxyribose degradation was determined by measuring the competition between deoxyribose and bioactive compounds for the hydroxyl radicals (^.OH) generated from the Fe^3+/ascorbate/EDTA/H2O2 system (referred to non-site-specific assay; the major activity measured is ^.OH scavenging) or an Fe^3+/ascorbate/H2O2 system (referred to as a site-specific assay; major activity measured is metal chelation). Both assays depend on the formation of a highly reactive hydroxyl radical, OH, by the interaction of iron ions with H2O2 through Fenton’s reaction. […] This assay was performed as previously described. Different concentrations of tested compounds were dissolved in 400 µL phosphate buffer (0.2 M, pH 7.4). Then, 50 µL of deoxyribose (60 mM), 50 µL of Na2EDTA (2 mM), 50 µL of FeCl3 (3.2 mM), 50 µL of H2O2 (60 mM) and 50 µL of ascorbic acid (2 mM) were added, and the total volume of the reaction mixture was adjusted to 1 mL with buffer. After water-bath incubation at 50 °C for 25 min, the reaction was terminated by 250 µL of trichloroacetic acid (10%, w/w). […] For site-specific hydroxyl-radical-scavenging activity, the reaction mixture was similar to the above method, except that EDTA was replaced by an equivalent volume of buffer.
IC50 values of isolated compounds in AChEI and scavenging of hydroxyl radical assays were calculated using Probit Analysis (SPSS Version 16.0 for Windows, SPSS Inc., Chicago, IL, USA) for five different concentrations in three independent experiments. Cell viability was expressed as a percentage of MTT reduction, assuming that the viability of cells treated with 1% DMSO as a negative control was 100%. […] All values are the mean ± SD of three independent experiments. Data were analyzed for statistical significance using one-way ANOVA, followed by Dunnet’s test as a post-hoc test with GraphPad Prism 5.0 software for Windows (Inc., San Diego, CA, USA).

[2] = target: T1, AChE from Electrophorus electricus (Electrophorus electricus, UniProt O42275); test: biochemical
T1 construct: purchased Sigma (St. Louis, MO, USA)
T1 sequence (O42275 24-633): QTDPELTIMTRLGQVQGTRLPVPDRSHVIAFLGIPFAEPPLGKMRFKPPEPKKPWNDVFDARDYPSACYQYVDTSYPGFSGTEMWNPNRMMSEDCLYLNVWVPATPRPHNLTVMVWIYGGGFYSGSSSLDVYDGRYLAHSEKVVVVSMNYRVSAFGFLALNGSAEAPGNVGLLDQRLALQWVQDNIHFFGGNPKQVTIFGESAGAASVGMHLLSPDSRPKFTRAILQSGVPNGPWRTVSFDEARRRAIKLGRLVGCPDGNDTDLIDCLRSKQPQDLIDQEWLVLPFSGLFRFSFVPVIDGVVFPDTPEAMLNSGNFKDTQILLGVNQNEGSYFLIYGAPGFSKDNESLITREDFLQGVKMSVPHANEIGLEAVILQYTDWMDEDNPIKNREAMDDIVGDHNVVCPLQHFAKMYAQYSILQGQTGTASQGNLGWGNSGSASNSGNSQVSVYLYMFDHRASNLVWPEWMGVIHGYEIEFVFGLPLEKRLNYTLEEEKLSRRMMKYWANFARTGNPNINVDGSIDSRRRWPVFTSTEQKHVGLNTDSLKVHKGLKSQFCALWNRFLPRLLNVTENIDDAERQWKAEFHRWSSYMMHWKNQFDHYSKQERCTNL
Experimental: AChEI activity was measured using Ellman’s method. AChE hydrolyzes the substrate ACTI into acetate and thiocholine. In a neutral and alkaline medium; thiocholine reacts with DTNB to give yellow colored 2-nitro-5-thiobenzoate, which can be detected spectrophotometrically at 405 nm. Briefly, in a 96-well plate, 25 µL of 15 mM ACTI, 125 µL of 3 mM DTNB in buffer B (50 mM Tris HCl, pH = 8, 0.1 M NaCl, 0.02 M MgCl2·6H2O), 50 µL of buffer A (50 mM Tris-HCl, PH 8, 0.1% BSA) and 25 µL of tested sample (dissolved in 25% DMSO) were mixed, and the absorbance was measured using a microplate reader (Biotek, Winooski, VT, USA) at 405 nm every 16 s ten times. Then, 25 µL of AChE (0.25 U/mL in buffer A) was added and the absorbance was measured ten times every 16 s. A solution of 25% DMSO was used as a negative control. Absorbance was plotted against time and enzyme activity was calculated from the slope of the line so obtained and expressed as a percentage compared to an assay using a buffer without any inhibitor. Fractions were tested at 400 µg/mL. To avoid any increase in absorbance due to the color of the compounds or spontaneous hydrolysis of the substrate, the absorbance before addition of the enzyme was subtracted from the absorbance after adding the enzyme.
IC50 values of isolated compounds in AChEI and scavenging of hydroxyl radical assays were calculated using Probit Analysis (SPSS Version 16.0 for Windows, SPSS Inc., Chicago, IL, USA) for five different concentrations in three independent experiments. Cell viability was expressed as a percentage of MTT reduction, assuming that the viability of cells treated with 1% DMSO as a negative control was 100%. Figures were built in Microsoft Excel 2010. All values are the mean ± SD of three independent experiments. Data were analyzed for statistical significance using one-way ANOVA, followed by Dunnet’s test as a post-hoc test with GraphPad Prism 5.0 software for Windows (Inc., San Diego, CA, USA).

neuro-2A cells [3] = test: Protection against H2O2-induced neurotoxicity (MTT); type: cell-based, Mouse; details: for Protection against H2O2: summary Table 4; for neuroprotection against H2O2-induced neurotoxicity (in words): 6.25-100 µM, H2O2 150 µM
Experimental: (§1) Neuro-2A cell line was maintained in Eagle’s Minimum Essential medium supplemented with 10% fetal bovine serum, 1% of 100× antibiotic—antimitotic agents (containing penicillin and streptomycin) in a humid atmosphere of 5% (v/v) CO2 and 95% (v/v) air at 37 °C. Neuro-2A cells were plated in 96-well cell culture plates at a density of 3 × 10^4 cells/well for H2O2 and intracellular ROS assays and 2.5 × 10^3 cells/well for the Aβ25-35-assay.
(§2) Cell viability was determined by MTT reduction assay. Briefly, after treatment with isolated compounds, the media was replaced by fresh one after washing the cells with 100 µL PBS and 20 µL of MTT (5 mg/mL) was added to each well. After 4 h incubation at 37 °C, the state of cells was checked under microscope to confirm either cytotoxicity in H2O2 and Aβ25-35 wells or protection in positive controls and isolated compounds ones. The supernatants were aspirated carefully, and 150 µL of DMSO was added to each well to dissolve the dark blue formazan crystals. The absorbance was measured using a microplate reader at 570 nm.
H2O2 interacts with metals in the medium, producing highly cytotoxic hydroxyl radicals that induce neurotoxicity. So, active compounds are those that can scavenge free radicals and increase the cell viability. This assay was performed as previously described with slight modifications. Briefly, the concentration of H2O2 that decreased cell viability to about 50% was determined as follows: cells were cultured in a 96-well plate and after 24 h were further incubated with different concentrations of H2O2 (50, 100, 150, 200 µM) freshly prepared from 30% stock solution. After 24 h, cell viability was determined using the MTT reduction method. H2O2 at a concentration of 150 µM had the desired cytotoxicity and was used for the next step.

[4] = tested on: intracellular ROS in Neuro-2A cells; test: Scavenging of intracellular reactive oxygen species (Bes-H2O2-AC, DFF fluorescence); type: cell-based, Mouse; details: for decrease of DFF fluorescence intensity (intracellular ROS): at 50 and 100 µM, H2O2 600 µM 30 min; for Intracellular ROS Scavenging: summary Table 4; for Intracellular ROS Scavenging: key: +: Weak activity; ++: Strong activity
Experimental: as §1
This assay was performed as previously described with some modifications. Briefly, Neuro-2A cells were seeded in 96-well Clear Fluorescence Black Plate (number 655090, Greiner Bio-one, Tokyo, Japan). Cells were treated with three different concentrations (25, 50, 100 µM) of the samples. After 2 h incubation, cells were subjected to oxidative stress using 600 µM of H2O2 for 30 min. The nucleus was stained by Hoechst 33342 (Dojindo, Kumamoto, Japan), and the amount of difluorofluorescein (DFF) released from the reaction of H2O2 and BES-H2O2-Ac was taken as an indication of the amount of intracellular H2O2 and ROS. Images of each well were acquired using an IN Cell Analyzer 1000 (GE Healthcare, Buckinghamshire, UK) using 360-nm (Hoechst 33342) and 480-nm (BES-H2O2-Ac) excitation filters and monitored through 460-nm and 535-nm emission filters, respectively. Developer software was used to analyze the images of Hoechst 33342 and BES-H2O2-Ac staining, and the resulting data were then applied to Spotfire Decision Site Client 8.2 software for visualizing the results.

neuro-2A cells [5] = test: Protection against Aβ25-35-induced neurotoxicity (MTT); type: cell-based, Mouse; details: for neuroprotection against Aβ25-35 (in words): at the highest concentration (100 µM); for Protection against Aβ25-35: summary Table 4; for Protection against Aβ25-35: key: +: Weak activity; ++: Strong activity
Experimental: as §1, §2
Similarly, the concentration of Aβ25-35 that decreased cell viability to about 50% was determined. […] So, the cells were incubated with different concentrations of the isolated compounds (6.25, 12.5, 25, 50 and 100 µM) and EGCG as a positive control for 3 h followed by Aβ25-35 treatment for 72 h.

[6] = summary Table 4, read-out: AchEI IC50
[7] = Fe3+/ascorbate/EDTA/H2O2 system, read-out: IC50 hydroxyl radical scavenging, Non Site-Specific
[8] = Fe3+/ascorbate/H2O2 system without EDTA, read-out: IC50 hydroxyl radical scavenging, Site-Specific
[9] = summary Table 4 (values of the non site-specific assay), read-out: Hydroxyl Radical Scavenging/IC50
[10] = Ellman's method, read-out: IC50 in the AChEI assay

Row | Compound | IC50 in the AChEI assay ([2]; Ellman's method) | IC50 [2, 6] [µM] | IC50 [1, 7] [µM] | IC50 [1, 8] [µM] | Protection against H2O2 (neuro-2A cells [3]) | decrease of DFF fluorescence intensity (intracellular ROS) [4] | Intracellular ROS Scavenging [4] | further results
1 | O=Cc1ccc(CO)o1 [5-(Hydroxymethyl)-2-furaldehyde (7), 5-(hydroxymethyl)-2-furaldehyde] | inactive | > 500 |  |  |  |  |  | % Inhibition of deoxyribose degradation, Site-Specific [1]: -; % Inhibition of deoxyribose degradation, Non Site-Specific [1]: 4 ± 0.3%
2 | Nc1ncnc2c1ncn2[C@@H]1O[C@H](CO)[C@@H](O)[C@H]1O [Adenosine (15), adenosine] | inactive | > 500 |  |  |  |  |  | 
3 | Oc1cc(O)c2c(c1)OC(c1ccc(O)c(O)c1)C(O)C2 (centres unmarked) [Catechin (positive control), Catechin, reference compound] |  |  | 473 ± 8.6 | 534 ± 19.2 |  |  |  | 
4 | O=C(/C=C/c1ccc(O)c(O)c1)O[C@@H]1C[C@](O)(C(=O)O)C[C@@H](O)[C@H]1O [Chlorogenic acid (11), chlorogenic acid] | inactive | > 500 |  |  | ++ | significantly decrease the fluorescence intensity | ++ | 
5 | OO [H2O2, reference compound] |  |  |  |  |  |  |  | cytotoxicity of H2O2 (neuro-2A cells [3]; 150 µM H2O2, 24 h, MTT): 48.2% ± 1.8%
6 | O=c1cc(-c2ccc(O)c(O)c2)oc2cc(O)cc(O)c12 [Luteolin (9), luteolin] |  | > 500 | 753 ± 11.1 | 980 ± 15.8 | ++ | significantly decrease the fluorescence intensity | ++ | neuroprotection against Aβ25-35 (in words) (neuro-2A cells [5]): significant neuroprotection (p < 0.05); Protection against Aβ25-35 (neuro-2A cells [5]): +; IC50 [1, 9]: 753 ± 11.1 µM; IC50 [2, 10]: > 500 µM; inhibition at 250 µM ([2]; at 250 µM): 30%
7 | COC(=O)C1(O)CC(O)C(O)C(OC(=O)C=Cc2ccc(O)c(O)c2)C1 (centres unmarked) [Methyl chlorogenate (10), methyl chlorogenate] |  | > 500 | 840 ± 12.4 | 920 ± 10.9 | ++ | significantly decrease the fluorescence intensity | ++ | IC50 [1, 9]: 840 ± 12.4 µM; IC50 [2, 10]: > 500 µM; inhibition at 500 µM ([2]; at 500 µM): 10%
8 | O=c1c(O)c(-c2ccc(O)c(O)c2)oc2cc(O)cc(O)c12 [Quercetin (12), quercetin] |  |  | 672 ± 10.6 | 837 ± 21.6 | ++ | significantly decrease the fluorescence intensity | ++ | neuroprotection against Aβ25-35 (in words) (neuro-2A cells [5]): significant neuroprotection (p < 0.05); Protection against Aβ25-35 (neuro-2A cells [5]): +; IC50 [1, 9]: 672 ± 10.6 µM
9 | CC1(C)CCC2(C)CCC3(C)C4CC=C5C(CCC(O)C5(C)C)C4(C)CCC3(C)C2C1 (stereo not drawn) [α-Glutinol (1), α-glutinol] | inactive | > 500 |  |  |  |  |  | neuroprotection against H2O2-induced neurotoxicity (in words) (neuro-2A cells [3]): did not show significant neuroprotection
10 | CC1(C)CC[C@]2(C)CC[C@]3(C)C(=CC[C@@H]4[C@@]5(C)CC[C@H](O)C(C)(C)[C@@H]5CC[C@]43C)[C@@H]2C1 [β-Amyrin (2), β-amyrin] | inactive | > 500 |  |  |  |  |  | % Inhibition of deoxyribose degradation, Site-Specific [1]: -; % Inhibition of deoxyribose degradation, Non Site-Specific [1]: -; neuroprotection against H2O2-induced neurotoxicity (in words) (neuro-2A cells [3]): did not show significant neuroprotection
11 | CCC(CCC(C)C1CCC2C3CC=C4CC(OC5OC(CO)C(O)C(O)C5O)CCC4(C)C3CCC12C)C(C)C (stereo not drawn) [β-Sitosterol-3-O-glucoside (5), β-sitosterol-3-O-glucoside] | inactive | > 500 |  |  |  |  |  | 
12 | Aβ25-35: amyloid β peptide fragment used to induce neurotoxicity (GSNKGAIIGLM; Amyloid-beta protein 42; UniProt P05067 696-706, looked up, fragment) [reference compound] |  |  |  |  |  |  |  | cytotoxicity of Aβ25-35 (neuro-2A cells [5]; 25 µM, 72 h incubation): 55% ± 4.6%
